# Measurements as given in patent publication US6525001B1, “Substituted pyrimidine and pyridine herbicides” (Mid-American Commercialization Corporation, priority 1997, dated 2003).
# Legend:
# Type in all cases: in vivo
# [1] = system: barnyardgrass (Echinochloa crus-galli); assay: Test C; conditions: PREEMERGENCE
# [2] = system: winter barley (Hordeum vulgare); assay: Test D; conditions: PREEMERGENCE
# [3] = system: common ragweed (Ambrosia elatior); assay: Test E pre-/postemergence/post directed; set-up: key: 0 is no effect; 100 is complete control; conditions: PREEMERGENCE, Rate 250 g/ha
# Source text: (§1) Seeds, tubers, or plant parts of alexandergrass (Brachiaria plantaginea), annual bluegrass (Poa annua), arrowleaf sida (Sida rhombifolia), barnyardgrass (Echinochloa crus-galli), bermudagrass (Cynodon dactylon), citrus (Citrus sinensis), common chickweed (Stellaria media), common purslane (Portulaca oleracea), common ragweed (Ambrosia elatior), common groundsel (Senecio vulgaris), dallisgrass (Paspalum dilatatum), goosegrass (Eleusine indica), green foxtail (Setaria viridis), guineagrass (Panicum maximum), itchgrass (Rottboellia exaltata), johnson grass (Sorghum halepense), kochia (Kochia scoparia), large crabgrass (Digitaria sanguinalis), leafy spurge (Euphorbia esula), pitted morningglory (Ipomoea lacunosa), purple nutsedge (Cyperus rotundus), quackgrass (Agropyron repens), Russian thistle (Salsola kali), sandbur (Cenchrus echinatus), sourgrass (Trichachne insularis), Spanishneedles (Bidens bipinnata), sugarcane (Saccharum officinarum), surinam grass (Brachiaria decumbens) and tall mallow (Malva sylvestris) were planted into greenhouse pots of flats containing greenhouse planting medium. Plant species were grown grown in separate pots or individual compartments. Preemergence applications were made within one day of planting the seed or plant part. Postemergence applications were applied when the plants were in the two to four leaf stage (three to twenty cm).
# (§2) Test chemicals were formulated in a non-phytotoxic solvent mixture which included a surfactant and applied preemergence to the soil surface, postemergence to the plants or as a post directed spray to plants and soil at the base of the target species. Untreated control plants and treated plants were placed in the greenhouse and visually evaluated for injury 13 to 21 days after herbicide application. Plant response ratings, summarized in Table E, are based on a 0 to 100 scale where 0 is no injury and 100 is complete control. A dash (−) response means no test result.
# [4] = system: tall mallow (Malva sylvestris); assay: Test E pre-/postemergence/post directed; set-up: key: 0 is no effect; 100 is complete control; conditions: PREEMERGENCE
# Source text: as §1, §2
# [5] = system: common groundsel (Senecio vulgaris); assay: Test E pre-/postemergence/post directed; set-up: key: 0 is no effect; 100 is complete control; conditions: PREEMERGENCE
# Source text: as §1, §2
# [6] = system: common purslane (Portulaca oleracea); assay: Test E pre-/postemergence/post directed; set-up: key: 0 is no effect; 100 is complete control; conditions: PREEMERGENCE
# Source text: as §1, §2
# [7] = system: large crabgrass (Digitaria sanguinalis); assay: Test E pre-/postemergence/post directed; set-up: key: 0 is no effect; 100 is complete control; conditions: PREEMERGENCE
# Source text: as §1, §2
# [8] = system: guineagrass (Panicum maximum); assay: Test E pre-/postemergence/post directed; set-up: key: 0 is no effect; 100 is complete control; conditions: PREEMERGENCE
# Source text: as §1, §2
# [9] = system: goosegrass (Eleusine indica); assay: Test E pre-/postemergence/post directed; set-up: key: 0 is no effect; 100 is complete control; conditions: PREEMERGENCE
# Source text: as §1, §2
# [10] = system: sourgrass (Trichachne insularis); assay: Test E pre-/postemergence/post directed; set-up: key: 0 is no effect; 100 is complete control; conditions: PREEMERGENCE
# Source text: as §1, §2
# [11] = system: dallisgrass (Paspalum dilatatum); assay: Test E pre-/postemergence/post directed; set-up: key: 0 is no effect; 100 is complete control; conditions: PREEMERGENCE
# Source text: as §1, §2
# [12] = system: bermudagrass (Cynodon dactylon); assay: Test E pre-/postemergence/post directed; set-up: key: 0 is no effect; 100 is complete control; conditions: PREEMERGENCE
# Source text: as §1, §2
# [13] = system: velvetleaf (Abutilon theophrasti); assay: Test C; conditions: PREEMERGENCE
# [14] = system: redroot pigweed (Amaranthus retroflexus); assay: Test C; set-up: key: 0 was no effect; 100 was complete control; conditions: PREEMERGENCE
# [15] = system: ladysthumb smartweed (Polygonum persicaria); assay: Test C; conditions: PREEMERGENCE
# [16] = system: johnsongrass (Sorghum halepense); assay: Test C; conditions: PREEMERGENCE
# [17] = system: common ragweed (Ambrosia elatior); assay: Test C; conditions: PREEMERGENCE
# [18] = system: fall panicum (Panicum dichotomiflorum); assay: Test C; set-up: key: 0 was no effect; 100 was complete control; conditions: PREEMERGENCE
smiles,measurement,setting,value
CCc1cnc(-n2ccc(C(F)(F)F)n2)nc1Cc1cccc(C(F)(F)F)c1 [Compound 46],"Plant response rating, Barnyardgrass",[1]; Rate 35 g/ha,5
same,"Plant response rating, Barnyardgrass",[1]; Rate 70 g/ha,10
same,"Plant response rating, Barnyardgrass",[1]; Rate 140 g/ha,50
same,"Plant response rating, Barley (winter)",[2]; Rate 31 g/ha,50
same,"Plant response rating, Barley (winter)",[2]; Rate 62 g/ha,2
same,"Plant response rating, Com. ragweed",[3],100
same,"Plant response rating, Tall Mallow",[4]; Rate 32 g/ha,100
same,"Plant response rating, Tall Mallow",[4]; Rate 64 g/ha,100
same,"Plant response rating, Tall Mallow",[4]; Rate 125 g/ha,100
same,"Plant response rating, Tall Mallow",[4]; Rate 250 g/ha,100
same,"Plant response rating, Com. groundsel",[5]; Rate 32 g/ha,100
same,"Plant response rating, Com. groundsel",[5]; Rate 64 g/ha,100
same,"Plant response rating, Com. groundsel",[5]; Rate 125 g/ha,100
same,"Plant response rating, Com. groundsel",[5]; Rate 250 g/ha,100
same,"Plant response rating, Com. purslane",[6]; Rate 32 g/ha,100
same,"Plant response rating, Com. purslane",[6]; Rate 64 g/ha,100
same,"Plant response rating, Com. purslane",[6]; Rate 125 g/ha,100
same,"Plant response rating, Com. purslane",[6]; Rate 250 g/ha,100
same,"Plant response rating, Large crabgrass",[7]; Rate 125 g/ha,100
same,"Plant response rating, Large crabgrass",[7]; Rate 250 g/ha,100
same,"Plant response rating, Guineagrass",[8]; Rate 32 g/ha,60
same,"Plant response rating, Guineagrass",[8]; Rate 64 g/ha,85
same,"Plant response rating, Guineagrass",[8]; Rate 125 g/ha,100
same,"Plant response rating, Guineagrass",[8]; Rate 250 g/ha,98
same,"Plant response rating, Goosegrass",[9]; Rate 32 g/ha,85
same,"Plant response rating, Goosegrass",[9]; Rate 64 g/ha,90
same,"Plant response rating, Goosegrass",[9]; Rate 125 g/ha,98
same,"Plant response rating, Goosegrass",[9]; Rate 250 g/ha,100
same,"Plant response rating, Sourgrass",[10]; Rate 32 g/ha,98
same,"Plant response rating, Sourgrass",[10]; Rate 64 g/ha,100
same,"Plant response rating, Sourgrass",[10]; Rate 125 g/ha,100
same,"Plant response rating, Sourgrass",[10]; Rate 250 g/ha,100
same,"Plant response rating, Dallisgrass",[11]; Rate 32 g/ha,65
same,"Plant response rating, Dallisgrass",[11]; Rate 64 g/ha,98
same,"Plant response rating, Dallisgrass",[11]; Rate 125 g/ha,100
same,"Plant response rating, Dallisgrass",[11]; Rate 250 g/ha,100
same,"Plant response rating, Bermudagrass",[12]; Rate 125 g/ha,100
same,"Plant response rating, Bermudagrass",[12]; Rate 250 g/ha,100
same,"Plant response rating, Velvetleaf",[13]; Rate 35 g/ha,50
same,"Plant response rating, Velvetleaf",[13]; Rate 70 g/ha,80
same,"Plant response rating, Velvetleaf",[13]; Rate 140 g/ha,80
same,"Plant response rating, Redroot pigweed",[14]; Rate 35 g/ha,70
same,"Plant response rating, Redroot pigweed",[14]; Rate 70 g/ha,100
same,"Plant response rating, Redroot pigweed",[14]; Rate 140 g/ha,100
same,"Plant response rating, Ladysthumb",[15]; Rate 35 g/ha,25
same,"Plant response rating, Ladysthumb",[15]; Rate 70 g/ha,10
same,"Plant response rating, Ladysthumb",[15]; Rate 140 g/ha,50
same,"Plant response rating, Johnsongrass",[16]; Rate 35 g/ha,5
same,"Plant response rating, Johnsongrass",[16]; Rate 70 g/ha,45
same,"Plant response rating, Johnsongrass",[16]; Rate 140 g/ha,50
same,"Plant response rating, Common ragweed",[17]; Rate 35 g/ha,10
same,"Plant response rating, Common ragweed",[17]; Rate 70 g/ha,20
same,"Plant response rating, Common ragweed",[17]; Rate 140 g/ha,80
same,"Plant response rating, Fall panicum",[18]; Rate 35 g/ha,60
same,"Plant response rating, Fall panicum",[18]; Rate 70 g/ha,100
same,"Plant response rating, Fall panicum",[18]; Rate 140 g/ha,100
